Experimental data reported in EP4722207A1, “OXOISOINDOLINYL-SUBSTITUTED TETRAHYDROPYRIMIDINEDIONE DERIVATIVE AND USE THEREOF” (Gluetacs Therapeutics (Shanghai) Co., Ltd., priority 2023, dated 2024).

Tests used:
Type in all cases: cell-based
Conditions in all cases: 24 hours of compound treatment, 50 nM and 500 nM
[1] = target: T1, WEE1 (Homo sapiens, UniProt P30291+Q96SW2); test: Western-blot assay, substrate protein degradation in hPBMCs: WEE1
T1 construct: effects of the compounds of the present disclosure on the expression of target proteins in cells; endogenous in cells; host or cells: human PBMCs (hPBMCs)
T1 sequence (P30291 whole entry): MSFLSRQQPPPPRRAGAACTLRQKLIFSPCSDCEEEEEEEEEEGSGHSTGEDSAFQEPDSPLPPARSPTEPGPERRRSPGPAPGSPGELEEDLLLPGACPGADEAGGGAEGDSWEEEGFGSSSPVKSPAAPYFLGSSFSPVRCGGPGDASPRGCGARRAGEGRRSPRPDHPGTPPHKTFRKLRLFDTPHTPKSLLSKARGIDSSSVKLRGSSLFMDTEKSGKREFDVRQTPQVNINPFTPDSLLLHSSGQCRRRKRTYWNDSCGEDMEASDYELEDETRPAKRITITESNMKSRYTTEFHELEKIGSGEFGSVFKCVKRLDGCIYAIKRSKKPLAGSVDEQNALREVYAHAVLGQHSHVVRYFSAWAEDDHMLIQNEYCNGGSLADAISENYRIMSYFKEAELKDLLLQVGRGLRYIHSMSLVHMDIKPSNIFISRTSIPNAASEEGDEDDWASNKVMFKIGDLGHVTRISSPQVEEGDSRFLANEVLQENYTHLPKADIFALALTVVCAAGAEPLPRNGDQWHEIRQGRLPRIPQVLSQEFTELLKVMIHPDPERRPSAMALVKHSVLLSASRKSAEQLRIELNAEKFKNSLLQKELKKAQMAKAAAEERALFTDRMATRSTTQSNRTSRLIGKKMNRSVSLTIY
T1 sequence (Q96SW2 whole entry): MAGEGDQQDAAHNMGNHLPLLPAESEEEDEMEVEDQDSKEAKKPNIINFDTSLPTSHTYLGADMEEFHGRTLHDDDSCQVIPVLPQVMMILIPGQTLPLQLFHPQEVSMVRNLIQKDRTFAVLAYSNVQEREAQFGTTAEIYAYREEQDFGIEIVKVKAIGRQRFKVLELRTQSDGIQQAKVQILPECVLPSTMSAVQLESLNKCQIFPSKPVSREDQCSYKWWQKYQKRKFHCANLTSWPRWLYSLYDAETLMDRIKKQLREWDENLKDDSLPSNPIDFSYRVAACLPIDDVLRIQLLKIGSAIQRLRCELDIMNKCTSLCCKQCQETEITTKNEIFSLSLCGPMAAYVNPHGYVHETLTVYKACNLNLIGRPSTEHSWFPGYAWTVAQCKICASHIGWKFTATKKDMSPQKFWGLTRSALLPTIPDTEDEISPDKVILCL
T1 sequence (Q16531 whole entry partner): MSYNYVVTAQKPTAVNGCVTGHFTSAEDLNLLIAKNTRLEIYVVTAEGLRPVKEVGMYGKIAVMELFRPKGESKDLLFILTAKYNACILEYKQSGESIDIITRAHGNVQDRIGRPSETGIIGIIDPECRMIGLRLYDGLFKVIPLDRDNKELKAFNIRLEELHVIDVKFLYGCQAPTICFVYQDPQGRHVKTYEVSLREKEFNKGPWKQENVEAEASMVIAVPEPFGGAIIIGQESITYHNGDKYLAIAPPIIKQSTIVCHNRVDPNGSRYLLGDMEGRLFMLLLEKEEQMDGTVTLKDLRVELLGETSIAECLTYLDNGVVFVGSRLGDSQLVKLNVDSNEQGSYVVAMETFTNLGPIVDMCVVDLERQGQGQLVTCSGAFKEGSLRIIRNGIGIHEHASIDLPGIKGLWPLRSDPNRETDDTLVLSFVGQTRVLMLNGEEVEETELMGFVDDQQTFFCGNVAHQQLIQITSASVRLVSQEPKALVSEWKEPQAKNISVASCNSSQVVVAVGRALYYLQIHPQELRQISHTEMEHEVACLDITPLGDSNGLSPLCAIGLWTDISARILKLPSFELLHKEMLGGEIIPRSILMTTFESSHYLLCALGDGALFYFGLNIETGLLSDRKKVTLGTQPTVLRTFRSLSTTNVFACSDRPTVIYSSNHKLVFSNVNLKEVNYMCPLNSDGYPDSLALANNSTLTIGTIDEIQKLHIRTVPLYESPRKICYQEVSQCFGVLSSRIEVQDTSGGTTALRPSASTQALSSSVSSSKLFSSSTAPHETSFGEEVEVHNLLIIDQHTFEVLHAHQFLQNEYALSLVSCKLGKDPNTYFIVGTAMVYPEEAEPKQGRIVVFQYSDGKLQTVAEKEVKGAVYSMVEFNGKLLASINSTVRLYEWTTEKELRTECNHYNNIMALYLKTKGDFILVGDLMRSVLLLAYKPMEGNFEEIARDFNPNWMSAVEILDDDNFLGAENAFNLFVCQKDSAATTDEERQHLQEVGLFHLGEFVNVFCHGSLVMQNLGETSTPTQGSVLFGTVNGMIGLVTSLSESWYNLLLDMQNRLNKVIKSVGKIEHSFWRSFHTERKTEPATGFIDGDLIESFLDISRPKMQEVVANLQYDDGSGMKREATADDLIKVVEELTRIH

[2] = target: T2, IKZF1 (Homo sapiens, UniProt Q13422+Q96SW2); test: Western-blot assay, substrate protein degradation in hPBMCs: IKZF1
T2 construct: effects of the compounds of the present disclosure on the expression of target proteins in cells; endogenous in cells; host or cells: human PBMCs (hPBMCs)

[3] = target: T3, IKZF2 (Homo sapiens, UniProt Q96SW2+Q9UKS7); test: Western-blot assay, substrate protein degradation in hPBMCs: IKZF2
T3 construct: effects of the compounds of the present disclosure on the expression of target proteins in cells; endogenous in cells; host or cells: human PBMCs (hPBMCs)
T3 sequence (Q9UKS7 whole entry): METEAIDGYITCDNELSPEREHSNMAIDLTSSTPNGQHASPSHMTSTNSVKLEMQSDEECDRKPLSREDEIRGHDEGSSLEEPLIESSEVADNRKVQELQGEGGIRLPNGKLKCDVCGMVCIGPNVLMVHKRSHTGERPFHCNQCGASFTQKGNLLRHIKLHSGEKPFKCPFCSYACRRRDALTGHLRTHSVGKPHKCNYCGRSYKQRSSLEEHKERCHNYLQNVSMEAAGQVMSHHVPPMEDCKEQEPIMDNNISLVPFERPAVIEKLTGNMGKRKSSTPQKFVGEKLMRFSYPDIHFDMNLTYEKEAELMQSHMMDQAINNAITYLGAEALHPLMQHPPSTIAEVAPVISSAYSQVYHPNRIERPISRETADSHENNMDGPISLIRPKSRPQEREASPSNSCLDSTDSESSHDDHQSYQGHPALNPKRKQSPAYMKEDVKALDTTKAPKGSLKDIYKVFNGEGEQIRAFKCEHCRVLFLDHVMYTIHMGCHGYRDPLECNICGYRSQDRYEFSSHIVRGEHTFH
T3 sequence (Q96SW2 whole entry): as the sequence (Q96SW2 whole entry) above
T3 sequence (Q16531 whole entry partner): as the sequence (Q16531 whole entry partner) above

[4] = target: T4, IKZF3 (Homo sapiens, UniProt Q96SW2+Q9UKT9); test: Western-blot assay, substrate protein degradation in hPBMCs: IKZF3
T4 construct: effects of the compounds of the present disclosure on the expression of target proteins in cells; endogenous in cells; host or cells: human PBMCs (hPBMCs)
T4 sequence (Q9UKT9 whole entry): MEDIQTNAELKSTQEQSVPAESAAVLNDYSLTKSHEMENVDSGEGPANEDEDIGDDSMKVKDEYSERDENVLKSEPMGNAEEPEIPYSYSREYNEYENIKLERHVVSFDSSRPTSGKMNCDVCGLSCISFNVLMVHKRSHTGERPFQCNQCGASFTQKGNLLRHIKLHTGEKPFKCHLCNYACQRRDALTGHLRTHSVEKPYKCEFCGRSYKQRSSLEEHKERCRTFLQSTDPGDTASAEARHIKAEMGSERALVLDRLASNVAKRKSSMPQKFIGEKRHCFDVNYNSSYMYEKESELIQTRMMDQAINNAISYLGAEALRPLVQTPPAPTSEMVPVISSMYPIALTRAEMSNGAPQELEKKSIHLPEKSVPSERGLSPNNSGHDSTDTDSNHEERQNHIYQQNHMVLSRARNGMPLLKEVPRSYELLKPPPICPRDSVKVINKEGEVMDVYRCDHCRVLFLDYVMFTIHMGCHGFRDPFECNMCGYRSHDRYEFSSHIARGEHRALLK
T4 sequence (Q96SW2 whole entry): as the sequence (Q96SW2 whole entry) above
T4 sequence (Q16531 whole entry partner): as the sequence (Q16531 whole entry partner) above

[5] = target: T5, GSPT1 (Homo sapiens, UniProt P15170+Q96SW2); test: Western-blot assay, substrate protein degradation in hPBMCs: GSPT1
T5 construct: effects of the compounds of the present disclosure on the expression of target proteins in cells; endogenous in cells; host or cells: human PBMCs (hPBMCs)
T5 sequence (P15170 whole entry): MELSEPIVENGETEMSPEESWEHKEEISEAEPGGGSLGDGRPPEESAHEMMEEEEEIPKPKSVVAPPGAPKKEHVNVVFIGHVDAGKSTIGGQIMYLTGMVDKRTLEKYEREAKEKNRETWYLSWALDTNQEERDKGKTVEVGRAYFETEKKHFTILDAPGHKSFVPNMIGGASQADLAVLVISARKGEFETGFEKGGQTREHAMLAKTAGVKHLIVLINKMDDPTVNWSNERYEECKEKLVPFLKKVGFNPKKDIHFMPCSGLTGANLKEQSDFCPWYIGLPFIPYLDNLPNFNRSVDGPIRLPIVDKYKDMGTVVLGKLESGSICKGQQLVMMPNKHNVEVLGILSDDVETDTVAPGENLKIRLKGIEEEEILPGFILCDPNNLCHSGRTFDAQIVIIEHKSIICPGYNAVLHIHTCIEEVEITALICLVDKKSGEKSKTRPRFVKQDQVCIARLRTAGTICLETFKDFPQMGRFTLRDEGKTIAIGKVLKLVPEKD
T5 sequence (Q96SW2 whole entry): as the sequence (Q96SW2 whole entry) above
T5 sequence (Q16531 whole entry partner): as the sequence (Q16531 whole entry partner) above

[6] = target: T6, CK1α (Homo sapiens, UniProt P48729+Q96SW2); test: Western-blot assay, substrate protein degradation in hPBMCs: CK1α
T6 construct: effects of the compounds of the present disclosure on the expression of target proteins in cells; endogenous in cells; host or cells: human PBMCs (hPBMCs)
T6 sequence (P48729 whole entry): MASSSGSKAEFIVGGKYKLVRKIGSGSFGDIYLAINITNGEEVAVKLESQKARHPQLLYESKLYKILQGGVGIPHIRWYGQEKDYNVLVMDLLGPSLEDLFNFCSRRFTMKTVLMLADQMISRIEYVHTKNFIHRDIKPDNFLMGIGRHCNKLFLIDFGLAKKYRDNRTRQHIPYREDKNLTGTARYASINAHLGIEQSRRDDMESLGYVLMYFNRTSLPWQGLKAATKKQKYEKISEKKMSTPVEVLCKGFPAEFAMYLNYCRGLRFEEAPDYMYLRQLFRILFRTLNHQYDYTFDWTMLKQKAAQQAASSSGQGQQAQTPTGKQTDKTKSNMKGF
T6 sequence (Q96SW2 whole entry): as the sequence (Q96SW2 whole entry) above
T6 sequence (Q16531 whole entry partner): as the sequence (Q16531 whole entry partner) above

Row | SMILES | substrate protein remaining % WEE1 [1] | substrate protein remaining % IKZF1 [2] | substrate protein remaining % IKZF2 [3] | substrate protein remaining % IKZF3 [4] | substrate protein remaining % GSPT1 [5] | substrate protein remaining % CK1α [6]
1 | O=C1CCN(N2C(=O)c3ccc(CN4C5CC4CN(C(=O)C4=C(c6ccc(F)cc6)CCCC4)C5)cc3C2=O)C(=O)N1 [GT-07377, 2-(2,4-dioxotetrahydropyrimidin-1(2H)-yl)-5-((3-(4'-fluoro-3,4,5,6-tetrahydro-[1,1'-biphenyl]-2-carbonyl)-3,6-diazabicyclo[3.1.1]heptan-6-yl)methyl)isoindoline-1,3-dione] | A (0% ≤ substrate protein remaining % ≤ 80%) | B (80%< substrate protein remaining %≤ 100%) | A (0% ≤ substrate protein remaining % ≤ 80%) | B (80%< substrate protein remaining %≤ 100%) | A (0% ≤ substrate protein remaining % ≤ 80%) | A (0% ≤ substrate protein remaining % ≤ 80%)
2 | O=C1CCN(N2C(=O)c3ccc(CN4CCC(c5ccsc5)CC4)cc3C2=O)C(=O)N1 [GT-07420, 2-(2,4-dioxotetrahydropyrimidin-1(2H)-yl)-5-((4-(thiophen-3-yl)piperidin-1-yl)methyl)isoindoline-1,3-dione] | B (80%< substrate protein remaining %≤ 100%) | B (80%< substrate protein remaining %≤ 100%) | B (80%< substrate protein remaining %≤ 100%) | B (80%< substrate protein remaining %≤ 100%) | A (0% ≤ substrate protein remaining % ≤ 80%) | A (0% ≤ substrate protein remaining % ≤ 80%)
3 | Cc1cc(C2CCN(Cc3ccc4c(c3)C(=O)N(N3CCC(=O)NC3=O)C4=O)CC2)cs1 [GT-07421, 2-(2,4-dioxotetrahydropyrimidin-1(2H)-yl)-5-((4-(5-methylthiophen-3-yl)piperidin-1-yl)methyl)isoindoline-1,3-dione] | B (80%< substrate protein remaining %≤ 100%) | B (80%< substrate protein remaining %≤ 100%) | B (80%< substrate protein remaining %≤ 100%) | B (80%< substrate protein remaining %≤ 100%) | A (0% ≤ substrate protein remaining % ≤ 80%) | A (0% ≤ substrate protein remaining % ≤ 80%)
4 | O=C1CCN(N2C(=O)c3ccc(CN4CCC(c5ccoc5)CC4)cc3C2=O)C(=O)N1 [GT-07422, 2-(2,4-dioxotetrahydropyrimidin-1(2H)-yl)-5-((4-(furan-3-yl)piperidin-1-yl)methyl)isoindoline-1,3-dione] | B (80%< substrate protein remaining %≤ 100%) | B (80%< substrate protein remaining %≤ 100%) | B (80%< substrate protein remaining %≤ 100%) | B (80%< substrate protein remaining %≤ 100%) | A (0% ≤ substrate protein remaining % ≤ 80%) | A (0% ≤ substrate protein remaining % ≤ 80%)
5 | Cc1cc(C2=CCN(Cc3ccc4c(c3)C(=O)N(N3CCC(=O)NC3=O)C4=O)CC2)cs1 [GT-07423, 2-(2,4-dioxotetrahydropyrimidin-1(2H)-yl)-5-((4-(5-methylthiophen-3-yl)-3,6-dihydropyridin-1(2H)-yl)methyl)isoindoline-1,3-dione] | A (0% ≤ substrate protein remaining % ≤ 80%) | B (80%< substrate protein remaining %≤ 100%) | B (80%< substrate protein remaining %≤ 100%) | A (0% ≤ substrate protein remaining % ≤ 80%) | A (0% ≤ substrate protein remaining % ≤ 80%) | A (0% ≤ substrate protein remaining % ≤ 80%)
6 | O=C1CCN(N2C(=O)c3ccc(CN4CCC(c5cccs5)CC4)cc3C2=O)C(=O)N1 [GT-07424, 2-(2,4-dioxotetrahydropyrimidin-1(2H)-yl)-5-((4-(thiophen-2-yl)piperidin-1-yl)methyl)isoindoline-1,3-dione] | A (0% ≤ substrate protein remaining % ≤ 80%) | A (0% ≤ substrate protein remaining % ≤ 80%) | B (80%< substrate protein remaining %≤ 100%) | A (0% ≤ substrate protein remaining % ≤ 80%) | A (0% ≤ substrate protein remaining % ≤ 80%) | B (80%< substrate protein remaining %≤ 100%)
7 | O=C1CCN(N2Cc3cc(CN4C[C@H]5C[C@@H]4CN5c4cccc(Cl)c4Cl)ccc3C2=O)C(=O)N1 [GT-07427, 1-(5-(((1R,4R)-5-(2,3-dichlorophenyl)-2,5-diazabicyclo[2.2.1]heptan-2-yl)methyl)-1-oxoisoindolin-2-yl)dihydropyrimidine-2,4(1H,3H)-dione] | A (0% ≤ substrate protein remaining % ≤ 80%) | A (0% ≤ substrate protein remaining % ≤ 80%) | B (80%< substrate protein remaining %≤ 100%) | B (80%< substrate protein remaining %≤ 100%) | A (0% ≤ substrate protein remaining % ≤ 80%) | A (0% ≤ substrate protein remaining % ≤ 80%)
8 | O=C1CCN(N2Cc3cc(CN4CC5CCC4CN5c4cccc(Cl)c4Cl)ccc3C2=O)C(=O)N1 (stereo not drawn) [GT-07428, 1-(5-((5-(2,3-dichlorophenyl)-2,5-diazabicyclo[2.2.2]octan-2-yl)methyl)-1-oxoisoindolin-2-yl)dihydropyrimidine-2,4(1H,3H)-dione] | B (80%< substrate protein remaining %≤ 100%) | A (0% ≤ substrate protein remaining % ≤ 80%) | B (80%< substrate protein remaining %≤ 100%) | B (80%< substrate protein remaining %≤ 100%) | A (0% ≤ substrate protein remaining % ≤ 80%) | A (0% ≤ substrate protein remaining % ≤ 80%)
9 | O=C1CCN(N2Cc3cc(CN4CC5CCC(C4)N5c4cccc(Cl)c4Cl)ccc3C2=O)C(=O)N1 [GT-07429, 1-(5-((8-(2,3-dichlorophenyl)-3,8-diazabicyclo[3.2.1]octan-3-yl)methyl)-1-oxoisoindolin-2-yl)dihydropyrimidine-2,4(1H,3H)-dione] | B (80%< substrate protein remaining %≤ 100%) | A (0% ≤ substrate protein remaining % ≤ 80%) | B (80%< substrate protein remaining %≤ 100%) | B (80%< substrate protein remaining %≤ 100%) | B (80%< substrate protein remaining %≤ 100%) | B (80%< substrate protein remaining %≤ 100%)
10 | O=C1CCN(N2Cc3cc(CN4C5CCC4CN(c4cccc(Cl)c4Cl)C5)ccc3C2=O)C(=O)N1 [GT-07430, 1-(5-((3-(2,3-dichlorophenyl)-3,8-diazabicyclo[3.2.1]octan-8-yl)methyl)-1-oxoisoindolin-2-yl)dihydropyrimidine-2,4(1H,3H)-dione] | B (80%< substrate protein remaining %≤ 100%) | A (0% ≤ substrate protein remaining % ≤ 80%) | B (80%< substrate protein remaining %≤ 100%) | B (80%< substrate protein remaining %≤ 100%) | A (0% ≤ substrate protein remaining % ≤ 80%) | A (0% ≤ substrate protein remaining % ≤ 80%)
11 | O=C1CCN(N2Cc3cc(CN4CCCN(c5cccc(Cl)c5Cl)CC4)ccc3C2=O)C(=O)N1 [GT-07431, 1-(5-((4-(2,3-dichlorophenyl)-1,4-diazepan-1-yl)methyl)-1-oxoisoindolin-2-yl)dihydropyrimidine-2,4(1H,3H)-dione] | B (80%< substrate protein remaining %≤ 100%) | A (0% ≤ substrate protein remaining % ≤ 80%) | B (80%< substrate protein remaining %≤ 100%) | B (80%< substrate protein remaining %≤ 100%) | B (80%< substrate protein remaining %≤ 100%) | A (0% ≤ substrate protein remaining % ≤ 80%)
